Results taken from US20210060006A1, “COMPOSITIONS AND METHODS FOR TREATING GLIOBLASTOMA BY MODULATING A MGMT ENHANCER” (The Trustees of Columbia University in the City of New York, priority 2018, published 2021).

Legend:
MGMT [1] = settings: combination with TMZ compared to TMZ alone; cited from earlier work
[2] = system: SKMG3 parental cells and enhancer deletion clones; assay: Clonogenic assay of TMZ sensitivity; assay type: cell-based, human; settings: for IC50: Homo sapiens
Protocol: Cell viability was determined using clonogenic assay.
FIG. 5F is a summary of TMZ IC50 in SKMG3 clones with or without O6BG pre-treatment.
Clonogenic assays were performed to assess the effect of disrupted enhancer on TMZ sensitivity. Briefly, SKMG3 parental cells and enhancer deletion clones were plated in 6 wells plates (250 cells/well), treated with graded concentration of TMZ in presence or absence of O6BG and were cultured for 2 weeks. Colonies were fixed and stained with crystal violet (0.005% (w/v) Crystal violet, 25% (v/v) Methanol). Colonies with >50 cells were manually counted, IC50 calculated by GraphPad Prism 7 using multiparametric nonlinear regression model.

MGMT [3] = settings: SAHA in combination with TMZ; cited from earlier work

## Nc1nc(OCc2ccccc2)c2nc[nH]c2n1 [O6BG, O6-benzylguanine]
MGMT [1]
  clinical benefit: no clinical benefit
  hematologic toxicities: enhanced hematologic toxicities
  therapeutic window: reduced therapeutic window
[2]; group pre-treated with 10 μM O6BG 1 h prior to temozolomide
  TMZ sensitizing effect of enhancer deletion: not observed

## O=C(CCCCCCC(=O)Nc1ccccc1)NO [SAHA]
MGMT [3]
  MGMT expression: promotes elevation of MGMT expression

## Cn1nnc2c(C(N)=O)ncn2c1=O [TMZ, temozolomide]
[2]; K-M enhancer deleted (3.3 kb) SKMG3 clones
  IC50: < 10 µM
[2]; parental SKMG3 lines and wild type control clone
  IC50: > 100 µM
